This note sets out measurements from ChEMBL document CHEMBL1127379, “Three-dimensional molecular shape analysis-quantitative structure-activity relationship of a series of cholecystokinin-A receptor antagonists” (J Med Chem, 1994).

The experiment addresses T1, Cholecystokinin receptor type A (Rattus norvegicus, UniProt P30551).
T1 sequence (P30551 whole entry): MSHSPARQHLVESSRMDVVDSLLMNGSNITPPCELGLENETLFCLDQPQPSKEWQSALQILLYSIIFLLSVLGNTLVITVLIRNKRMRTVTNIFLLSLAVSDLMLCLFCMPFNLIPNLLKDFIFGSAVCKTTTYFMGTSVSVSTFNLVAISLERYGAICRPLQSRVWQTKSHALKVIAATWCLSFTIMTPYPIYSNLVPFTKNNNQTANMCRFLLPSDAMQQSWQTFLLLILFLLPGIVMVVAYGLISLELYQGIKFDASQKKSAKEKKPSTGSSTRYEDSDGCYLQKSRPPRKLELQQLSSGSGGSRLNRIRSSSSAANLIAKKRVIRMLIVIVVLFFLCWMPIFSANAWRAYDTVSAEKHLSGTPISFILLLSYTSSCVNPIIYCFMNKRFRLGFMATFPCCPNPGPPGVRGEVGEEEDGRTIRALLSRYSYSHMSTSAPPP
In words: Binding affinity against cholecystokinin type A receptor of rat pancreas.
By IC50 is commonly meant the concentration that inhibits the measured activity by half. Read a high IC50 as weaker potency. In turn, `CN1C(=O)[C@@H](NC(=O)c2ccc(Cl)cc2)N=C(c2ccccc2F)c2ccccc21` gave an IC50 of 2.88 nM.

The compound `CN1C(=O)[C@@H](NC(=O)c2ccc(Br)cc2)N=C(c2ccccc2)c2ccccc21` gave an IC50 of 2.51 nM. This IC50 and that of the compound before are within 1.5-fold of each other.

As for `O=C(NC1N=C(c2ccccc2)c2ccccc2NC1=O)c1cc2ccccc2[nH]1` (stereo not drawn), the 50% inhibitory concentration (IC50) is 4.57 nM.

Compound `O=C(NC1N=C(c2ccccc2F)c2ccccc2NC1=O)c1cc2cc(Cl)ccc2[nH]1` (stereo not drawn) gave an IC50 of 100 nM.

As for `O=C(NC1N=C(c2ccccc2)c2ccccc2NC1=O)c1ccc(O)cc1` (stereo not drawn), the IC50 was 1780 nM.

In the case of `CN1C(=O)C(NC(=O)c2ccc(C#N)cc2)N=C(c2ccccc2F)c2ccccc21` (stereo not drawn), the IC50 was 42.7 nM. This IC50 is about 42-fold lower than that of the compound before.

Turning to `CC1C(C(=O)NC2N=C(c3ccccc3F)c3ccccc3NC2=O)=Cc2ccccc21` (stereo not drawn), the half-inhibitory concentration (IC50) was 21.9 nM. Compared with the last compound, the IC50 is about 1.9-fold lower.

On to `O=C(CNc1ccccc1)NC1N=C(c2ccccc2F)c2ccccc2NC1=O` (stereo not drawn), for which the 50% inhibitory concentration (IC50) is 89.1 nM.

For `CN1C(=O)C(NC(=O)c2ccccc2I)N=C(c2ccccc2F)c2ccccc21` (stereo not drawn), the IC50 is 794 nM.

`CN1C(=O)C(NC(=O)c2ccc(Br)cc2)N=C(c2ccccc2F)c2ccccc21` (stereo not drawn) had a 50% inhibitory concentration (IC50) of 0.794 nM.

Consider `CN1C(=O)C(NC(=O)c2ccc(I)cc2)N=C(c2ccccc2F)c2ccccc21` (stereo not drawn), for which the 50% inhibitory concentration (IC50) is 0.794 nM.

`CN1C(=O)C(NC(=O)c2ccc(C(F)(F)F)cc2)N=C(c2ccccc2)c2ccccc21` (stereo not drawn) showed a half-maximal inhibitory concentration (IC50) of 1.29 nM.

In turn, `CN1C(=O)C(NC(=O)c2cccc(Br)c2)N=C(c2ccccc2F)c2ccccc21` (stereo not drawn) had an IC50 of 3.47 nM.
